Experimental data as given in ChEMBL document CHEMBL3102798, “Stapled Vasoactive Intestinal Peptide (VIP) Derivatives Improve VPAC2 Agonism and Glucose-Dependent Insulin Secretion” (ACS Med Chem Lett, 2013).
Numbered stars: 1 amine (or outer) side, 2 acyl side, 3 side chain; on linkers, the order of the positions; unused ones are H or OH. Bridge positions count the residues as written; N and C are the ends. Square brackets hold non-standard residues; d marks the D form. Peptide text beside a SMILES is read from it. X1 = C[C@@](CCCCC=[*:3])(N[*:1])C(=O)[*:2]; S5 = C=CCCC[C@](C)(N)C(=O)O

Tests used:
[1] = target: T1, Vasoactive intestinal polypeptide receptor 2 (Homo sapiens, UniProt P41587); test: Agonist activity at human VPAC2 expressed in CHO Flp-in cells assessed as accumulation of cAMP after 30 mins by TR-FRET assay; format: functional, cell-based
T1 sequence (P41587 whole entry): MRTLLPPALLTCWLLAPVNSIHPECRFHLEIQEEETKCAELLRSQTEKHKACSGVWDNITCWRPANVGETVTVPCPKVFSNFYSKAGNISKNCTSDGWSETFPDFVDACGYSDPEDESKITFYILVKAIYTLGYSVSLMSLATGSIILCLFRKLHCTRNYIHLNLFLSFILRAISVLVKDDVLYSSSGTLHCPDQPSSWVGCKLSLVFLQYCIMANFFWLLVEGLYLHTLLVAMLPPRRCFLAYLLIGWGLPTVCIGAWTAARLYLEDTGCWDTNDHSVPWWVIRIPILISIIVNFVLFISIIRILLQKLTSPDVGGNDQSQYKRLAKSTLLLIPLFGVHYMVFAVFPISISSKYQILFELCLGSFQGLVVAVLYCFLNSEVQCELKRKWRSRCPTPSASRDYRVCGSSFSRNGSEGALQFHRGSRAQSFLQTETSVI

[2] = Stability of the compound in phosphate buffer assessed as compound remaining at pH 7.4 after 15 mins by LC-MS-MS analysis in presence of trypsin; format: ADME; conditions: phosphate buffer with trypsin, read-out: Stability
[3] = Apparent passive permeability across apical to basolateral side in human Caco2 cells at 10 uM after 30 to 60 mins by LC/MS analysis; format: ADME, cell-based; conditions: Caco-2

Row | EC50 [1] | remaining at 0.25 h [2] | Papp A→B at 10 µM [3] | Compound
1 | 1.37 nM | 0.7% | < 1 nm/s | C=CCCC[C@](C)(NC(=O)[C@H](CCC(N)=O)NC(=O)[C@H](CCCCN)NC(=O)[C@H](CCCN=C(N)N)NC(=O)[C@](C)(CCCC=C)NC(=O)[C@H](CCCN=C(N)N)NC(=O)[C@@H](NC(=O)[C@H](Cc1ccc(O)cc1)NC(=O)[C@H](CC(N)=O)NC(=O)[C@H](CC(=O)O)NC(=O)[C@@H](NC(=O)[C@H](Cc1ccccc1)NC(=O)[C@@H](NC(=O)[C@H](C)NC(=O)[C@H](CC(=O)O)NC(=O)[C@H](CO)NC(=O)[C@@H](N)Cc1cnc[nH]1)C(C)C)[C@@H](C)O)[C@@H](C)O)C(=O)N[C@@H](C)C(=O)N[C@H](C(=O)N[C@@H](CCCCN)C(=O)N[C@@H](CCCCN)C(=O)N[C@@H](Cc1ccc(O)cc1)C(=O)N[C@@H](CC(C)C)C(=O)N[C@@H](CC(N)=O)C(=O)N[C@@H](CO)C(=O)N[C@H](C(=O)N[C@@H](CC(C)C)C(=O)N[C@@H](CC(N)=O)C(=O)NCC(=O)N[C@@H](CCCCN)C(=O)O)[C@@H](C)CC)C(C)C
2 | 1.16 nM |  |  | CC[C@H](C)[C@H](NC(=O)[C@H](CO)NC(=O)[C@H](CC(N)=O)NC(=O)[C@H](CC(C)C)NC(=O)[C@H](Cc1ccc(O)cc1)NC(=O)[C@H](CCCCN)NC(=O)[C@H](CCCCN)NC(=O)[C@@H](NC(=O)[C@H](C)NC(=O)[C@@H]1CCCCNC(=O)CC[C@H](NC(=O)[C@H](CCCN=C(N)N)NC(=O)[C@@H](NC(=O)[C@H](Cc2ccc(O)cc2)NC(=O)[C@H](CC(N)=O)NC(=O)[C@H](CC(=O)O)NC(=O)[C@@H](NC(=O)[C@H](Cc2ccccc2)NC(=O)[C@@H](NC(=O)[C@H](C)NC(=O)[C@H](CC(=O)O)NC(=O)[C@H](CO)NC(=O)[C@@H](N)Cc2cnc[nH]2)C(C)C)[C@@H](C)O)[C@@H](C)O)C(=O)N[C@@H](CCCN=C(N)N)C(=O)N[C@@H](CCCCN)C(=O)N[C@@H](CCC(N)=O)C(=O)N1)C(C)C)C(=O)N[C@@H](CC(C)C)C(=O)N[C@@H](CC(N)=O)C(=O)NCC(=O)N[C@@H](CCCCN)C(=O)O (H-HSDAVFTDNYTRERKQKAVKKYLNSILNGK-OH; lactam 13-17)
3 | 0.11 nM |  |  | CC[C@H](C)[C@H](NC(=O)[C@H](CCC(N)=O)NC(=O)[C@H](CCCCN)NC(=O)[C@H](CCCNC(=N)N)NC(=O)[C@H](CC(C)C)NC(=O)[C@H](CCCNC(=N)N)NC(=O)[C@@H](NC(=O)[C@H](Cc1ccc(O)cc1)NC(=O)[C@H](CC(N)=O)NC(=O)[C@H](CC(=O)O)NC(=O)[C@@H](NC(=O)[C@H](Cc1ccccc1)NC(=O)[C@@H](NC(=O)[C@H](C)NC(=O)[C@H](CC(=O)O)NC(=O)[C@H](CO)NC(=O)[C@@H](N)Cc1cnc[nH]1)C(C)C)[C@@H](C)O)[C@@H](C)O)C(=O)N[C@@H](C)C(=O)N[C@H](C(=O)N[C@@H](CCCCN)C(=O)N[C@H]1CCC(=O)NCCCC[C@@H](C(=O)N[C@H](C(=O)N[C@@H](CC(C)C)C(=O)N[C@@H](CC(N)=O)C(=O)NCC(=O)N[C@@H](CCCCN)C(=O)O)[C@@H](C)CC)NC(=O)[C@H](CC(N)=O)NC(=O)[C@H](CC(C)C)NC(=O)[C@H](Cc2ccc(O)cc2)NC1=O)C(C)C (H-HSDAVFTDNYTRLRKQIAVKEYLNKILNGK-OH; lactam 21-25)
4 | 0.21 nM |  |  | C=CCCC[C@](C)(NC(=O)[C@H](CC(C)C)NC(=O)[C@@H](NC(=O)[C@H](CO)NC(=O)[C@](C)(CCCC=C)NC(=O)[C@H](CC(C)C)NC(=O)[C@H](Cc1ccc(O)cc1)NC(=O)[C@H](CCCCN)NC(=O)[C@H](CCCCN)NC(=O)[C@@H](NC(=O)[C@H](C)NC(=O)[C@@H](NC(=O)[C@H](CCC(N)=O)NC(=O)[C@H](CCCCN)NC(=O)[C@H](CCCNC(=N)N)NC(=O)[C@H](CC(C)C)NC(=O)[C@H](CCCNC(=N)N)NC(=O)[C@@H](NC(=O)[C@H](Cc1ccc(O)cc1)NC(=O)[C@H](CC(N)=O)NC(=O)[C@H](CC(=O)O)NC(=O)[C@@H](NC(=O)[C@H](Cc1ccccc1)NC(=O)[C@@H](NC(=O)[C@H](C)NC(=O)[C@H](CC(=O)O)NC(=O)[C@H](CO)NC(=O)[C@@H](N)Cc1cnc[nH]1)C(C)C)[C@@H](C)O)[C@@H](C)O)[C@@H](C)CC)C(C)C)[C@@H](C)CC)C(=O)NCC(=O)N[C@@H](CCCCN)C(=O)O (H-HSDAVFTDNYTRLRKQIAVKKYL[S5]SIL[S5]GK-OH)
5 | 0.39 nM |  |  | CC[C@H](C)[C@H](NC(=O)[C@H](CCC(N)=O)NC(=O)[C@H](CCCCN)NC(=O)[C@H](CCCNC(=N)N)NC(=O)[C@H](CC(C)C)NC(=O)[C@H](CCCNC(=N)N)NC(=O)[C@@H](NC(=O)[C@H](Cc1ccc(O)cc1)NC(=O)[C@H](CC(N)=O)NC(=O)[C@H](CC(=O)O)NC(=O)[C@@H](NC(=O)[C@H](Cc1ccccc1)NC(=O)[C@@H](NC(=O)[C@H](C)NC(=O)[C@H](CC(=O)O)NC(=O)[C@H](CO)NC(=O)[C@@H](N)Cc1cnc[nH]1)C(C)C)[C@@H](C)O)[C@@H](C)O)C(=O)N[C@@H](C)C(=O)N[C@H](C(=O)N[C@@H](CCCCN)C(=O)N[C@@H](CCCCN)C(=O)N[C@@H](Cc1ccc(O)cc1)C(=O)N[C@@H](CC(C)C)C(=O)N[C@@]1(C)CCCC/C=C\CCCC[C@@](C)(C(=O)NCC(=O)N[C@@H](CCCCN)C(=O)O)NC(=O)[C@H](CC(C)C)NC(=O)[C@H]([C@@H](C)CC)NC(=O)[C@H](CO)NC1=O)C(C)C (H-HSDAVFTDNYTRLRKQIAVKKYL[X1]SIL[X1]GK-OH; staple (Z) 24-28)
6 | 3.8 nM |  |  | C=CCCC[C@](C)(NC(=O)[C@H](CCCCN)NC(=O)[C@@H](NC(=O)[C@H](C)NC(=O)[C@@H](NC(=O)[C@H](CCC(N)=O)NC(=O)[C@H](CCCCN)NC(=O)[C@H](CCCN=C(N)N)NC(=O)[C@H](CC(C)C)NC(=O)[C@H](CCCN=C(N)N)NC(=O)[C@@H](NC(=O)[C@H](Cc1ccc(O)cc1)NC(=O)[C@H](CC(N)=O)NC(=O)[C@H](CC(=O)O)NC(=O)[C@@H](NC(=O)[C@H](Cc1ccccc1)NC(=O)[C@@H](NC(=O)[C@H](C)NC(=O)[C@H](CC(=O)O)NC(=O)[C@H](CO)NC(=O)[C@@H](N)Cc1cnc[nH]1)C(C)C)[C@@H](C)O)[C@@H](C)O)[C@@H](C)CC)C(C)C)C(=O)N[C@@H](Cc1ccc(O)cc1)C(=O)N[C@@H](CC(C)C)C(=O)N[C@@H](CC(N)=O)C(=O)N[C@@](C)(CCCC=C)C(=O)N[C@H](C(=O)N[C@@H](CC(C)C)C(=O)N[C@@H](CC(N)=O)C(=O)NCC(=O)N[C@@H](CCCCN)C(=O)O)[C@@H](C)CC (H-HSDAVFTDNYTRLRKQIAVK[S5]YLN[S5]ILNGK-OH)
7 | 1.52 nM |  |  | CC[C@H](C)[C@H](NC(=O)[C@H](CCC(N)=O)NC(=O)[C@H](CCCCN)NC(=O)[C@H](CCCNC(=N)N)NC(=O)[C@H](CC(C)C)NC(=O)[C@H](CCCNC(=N)N)NC(=O)[C@@H](NC(=O)[C@H](Cc1ccc(O)cc1)NC(=O)[C@H](CC(N)=O)NC(=O)[C@H](CC(=O)O)NC(=O)[C@@H](NC(=O)[C@H](Cc1ccccc1)NC(=O)[C@@H](NC(=O)[C@H](C)NC(=O)[C@H](CC(=O)O)NC(=O)[C@H](CO)NC(=O)[C@@H](N)Cc1cnc[nH]1)C(C)C)[C@@H](C)O)[C@@H](C)O)C(=O)N[C@@H](C)C(=O)N[C@H](C(=O)N[C@@H](CCCCN)C(=O)N[C@@]1(C)CCCC/C=C\CCCC[C@@](C)(C(=O)N[C@H](C(=O)N[C@@H](CC(C)C)C(=O)N[C@@H](CC(N)=O)C(=O)NCC(=O)N[C@@H](CCCCN)C(=O)O)[C@@H](C)CC)NC(=O)[C@H](CC(N)=O)NC(=O)[C@H](CC(C)C)NC(=O)[C@H](Cc2ccc(O)cc2)NC1=O)C(C)C (H-HSDAVFTDNYTRLRKQIAVK[X1]YLN[X1]ILNGK-OH; staple (Z) 21-25)
8 | 1.49 nM |  |  | C=CCCC[C@](C)(NC(=O)[C@H](CCC(N)=O)NC(=O)[C@H](CCCCN)NC(=O)[C@H](CCCN=C(N)N)NC(=O)[C@H](CC(C)C)NC(=O)[C@H](CCCN=C(N)N)NC(=O)[C@@H](NC(=O)[C@H](Cc1ccc(O)cc1)NC(=O)[C@H](CC(N)=O)NC(=O)[C@H](CC(=O)O)NC(=O)[C@@H](NC(=O)[C@H](Cc1ccccc1)NC(=O)[C@@H](NC(=O)[C@H](C)NC(=O)[C@H](CC(=O)O)NC(=O)[C@H](CO)NC(=O)[C@@H](N)Cc1cnc[nH]1)C(C)C)[C@@H](C)O)[C@@H](C)O)C(=O)N[C@@H](C)C(=O)N[C@H](C(=O)N[C@@H](CCCCN)C(=O)N[C@@](C)(CCCC=C)C(=O)N[C@@H](Cc1ccc(O)cc1)C(=O)N[C@@H](CC(C)C)C(=O)N[C@@H](CC(N)=O)C(=O)N[C@@H](CO)C(=O)N[C@H](C(=O)N[C@@H](CC(C)C)C(=O)N[C@@H](CC(N)=O)C(=O)NCC(=O)N[C@@H](CCCCN)C(=O)O)[C@@H](C)CC)C(C)C (H-HSDAVFTDNYTRLRKQ[S5]AVK[S5]YLNSILNGK-OH)
9 | 0.33 nM |  |  | CC[C@H](C)[C@H](NC(=O)[C@H](CO)NC(=O)[C@H](CC(N)=O)NC(=O)[C@H](CC(C)C)NC(=O)[C@H](Cc1ccc(O)cc1)NC(=O)[C@]1(C)CCCC/C=C\CCCC[C@](C)(NC(=O)[C@H](CCC(N)=O)NC(=O)[C@H](CCCCN)NC(=O)[C@H](CCCNC(=N)N)NC(=O)[C@H](CC(C)C)NC(=O)[C@H](CCCNC(=N)N)NC(=O)[C@@H](NC(=O)[C@H](Cc2ccc(O)cc2)NC(=O)[C@H](CC(N)=O)NC(=O)[C@H](CC(=O)O)NC(=O)[C@@H](NC(=O)[C@H](Cc2ccccc2)NC(=O)[C@@H](NC(=O)[C@H](C)NC(=O)[C@H](CC(=O)O)NC(=O)[C@H](CO)NC(=O)[C@@H](N)Cc2cnc[nH]2)C(C)C)[C@@H](C)O)[C@@H](C)O)C(=O)N[C@@H](C)C(=O)N[C@@H](C(C)C)C(=O)N[C@@H](CCCCN)C(=O)N1)C(=O)N[C@@H](CC(C)C)C(=O)N[C@@H](CC(N)=O)C(=O)NCC(=O)N[C@@H](CCCCN)C(=O)O (H-HSDAVFTDNYTRLRKQ[X1]AVK[X1]YLNSILNGK-OH; staple (Z) 17-21)
10 | 6.6 nM |  |  | H-HSDAVFTDNYTRERKQKAVKKYLNSILNGK-OH
11 | 0.21 nM |  |  | H-HSDAVFTDNYTRLRKQIAVKEYLNKILNGK-OH
12 | 0.14 nM | 0.3% | < 1 nm/s | H-HSDAVFTDNYTRLRKQIAVKKYLNSILNGK-OH
